Organism: Rattus norvegicus
Assay: Open TG-GATES - Regimen: Daily Repeat
Format: toxicity, organism-based, Sprague-Dawley
Design: regimen Daily Repeat, gender Male, age 6 weeks
Settings: in vivo, po, 100 mg/kg, route gavage, dose level Low; for APTT / Bas / Eos / Fbg / Hb / Ht / Lym / MCH / MCHC / MCV / Mono / Neu / PT / Plat / RBC / Ret / WBC: tissue Blood; for KIDNEY_L / KIDNEY_R / KIDNEY_TOTAL: tissue Kidney; for LIVER: tissue Liver; for A/G / ALP / ALT / AST / BUN / CRE / Ca / Cl / DBIL / GLC / IP / K / LDH / Na / PL / RALB / TBIL / TC / TG / TP / gamma-GTP: tissue Plasma

O=C(N[C@H](CO)[C@H](O)c1ccc([N+](=O)[O-])cc1)C(Cl)Cl [CHLORAMPHENICOL]
TERMINAL_BW (72 h, time 3 day): 251 g | APTT (72 h, time 3 day): 16.1 s | Bas (72 h, time 3 day): 0% | Eos (72 h, time 3 day): 1% | Fbg (72 h, time 3 day): 273.2 mg/dL | Hb (72 h, time 3 day): 13.3 g/dL | Ht (72 h, time 3 day): 40.4% | Lym (72 h, time 3 day): 79.4% | MCH (72 h, time 3 day): 21.8 pg | MCHC (72 h, time 3 day): 32.8% | MCV (72 h, time 3 day): 66.6 fL | Mono (72 h, time 3 day): 3.2% | Neu (72 h, time 3 day): 16.2% | PT (72 h, time 3 day): 14.7 s | Plat (72 h, time 3 day): 116.8 x10_4/uL | RBC (72 h, time 3 day): 607.2 x10_4/ul | Ret (72 h, time 3 day): 5.4% | WBC (72 h, time 3 day): 102.1 x10_2/uL | KIDNEY_L (72 h, time 3 day): 1.1 g | KIDNEY_R (72 h, time 3 day): 1 g | KIDNEY_TOTAL (72 h, time 3 day): 2.1 g | LIVER (72 h, time 3 day): 11.3 g | A/G (72 h, time 3 day): 0.9 | ALP (72 h, time 3 day): 1563.4 IU/L | ALT (72 h, time 3 day): 45 IU/L | AST (72 h, time 3 day): 69.4 IU/L | BUN (72 h, time 3 day): 15.6 mg/dL | CRE (72 h, time 3 day): 0.2 mg/dL | Ca (72 h, time 3 day): 11.1 mg/dL | Cl (72 h, time 3 day): 104.6 meq/L | DBIL (72 h, time 3 day): 0.02 mg/dL | GLC (72 h, time 3 day): 178.4 mg/dL | IP (72 h, time 3 day): 6.8 mg/dL | K (72 h, time 3 day): 4.3 meq/L | LDH (72 h, time 3 day): 95.6 IU/L | Na (72 h, time 3 day): 141.2 meq/L | PL (72 h, time 3 day): 146.8 mg/dL | RALB (72 h, time 3 day): 2.5 g/dL | TBIL (72 h, time 3 day): 0.054 mg/dL | TC (72 h, time 3 day): 80 mg/dL | TG (72 h, time 3 day): 97.6 mg/dL | TP (72 h, time 3 day): 5.4 g/dL | gamma-GTP (72 h, time 3 day): 0.8 IU/L | TERMINAL_BW ([…], time 7 day): 287.8 g | TERMINAL_BW ([…], time 14 day): 333.6 g | TERMINAL_BW ([…], time 28 day): 409.6 g | APTT ([…], time 7 day): 16.2 s | Bas ([…], time 7 day): 0% | Eos ([…], time 7 day): 0.8% | Fbg ([…], time 7 day): 308.8 mg/dL | Hb ([…], time 7 day): 14.2 g/dL | Ht ([…], time 7 day): 44.4% | Lym ([…], time 7 day): 78.2% | MCH ([…], time 7 day): 21.1 pg | MCHC ([…], time 7 day): 32.2% | MCV ([…], time 7 day): 65.7 fL | Mono ([…], time 7 day): 3% | Neu ([…], time 7 day): 17.4% | PT ([…], time 7 day): 14.4 s | Plat ([…], time 7 day): 131.5 x10_4/uL | RBC ([…], time 7 day): 675 x10_4/ul | Ret ([…], time 7 day): 6% | WBC ([…], time 7 day): 90.7 x10_2/uL | APTT ([…], time 14 day): 14.7 s | Bas ([…], time 14 day): 0% | Eos ([…], time 14 day): 1.4% | Fbg ([…], time 14 day): 297.8 mg/dL | Hb ([…], time 14 day): 14.1 g/dL | Ht ([…], time 14 day): 43.4% | Lym ([…], time 14 day): 78% | MCH ([…], time 14 day): 20.2 pg | MCHC ([…], time 14 day): 32.5% | MCV ([…], time 14 day): 62.1 fL | Mono ([…], time 14 day): 2.4% | Neu ([…], time 14 day): 18% | PT ([…], time 14 day): 14.5 s | Plat ([…], time 14 day): 121.6 x10_4/uL | RBC ([…], time 14 day): 698.2 x10_4/ul | Ret ([…], time 14 day): 3.8% | WBC ([…], time 14 day): 96.2 x10_2/uL | APTT ([…], time 28 day): 16.5 s | Bas ([…], time 28 day): 0% | Eos ([…], time 28 day): 1% | Fbg ([…], time 28 day): 278 mg/dL | Hb ([…], time 28 day): 14.9 g/dL | Ht ([…], time 28 day): 43.7% | Lym ([…], time 28 day): 81% | MCH ([…], time 28 day): 19.5 pg | MCHC ([…], time 28 day): 34.2% | MCV ([…], time 28 day): 57 fL | Mono ([…], time 28 day): 1.2% | Neu ([…], time 28 day): 15.8% | PT ([…], time 28 day): 14.8 s | Plat ([…], time 28 day): 106 x10_4/uL | RBC ([…], time 28 day): 767.4 x10_4/ul | Ret ([…], time 28 day): 2.3% | WBC ([…], time 28 day): 79.5 x10_2/uL | KIDNEY_L ([…], time 7 day): 1.2 g | KIDNEY_R ([…], time 7 day): 1.2 g | KIDNEY_TOTAL ([…], time 7 day): 2.4 g | KIDNEY_L ([…], time 14 day): 1.3 g | KIDNEY_R ([…], time 14 day): 1.3 g | KIDNEY_TOTAL ([…], time 14 day): 2.6 g | KIDNEY_L ([…], time 28 day): 1.6 g | KIDNEY_R ([…], time 28 day): 1.5 g | KIDNEY_TOTAL ([…], time 28 day): 3.1 g | LIVER ([…], time 7 day): 12.9 g | LIVER ([…], time 14 day): 14.9 g | LIVER ([…], time 28 day): 16.8 g | A/G ([…], time 7 day): 0.8 | ALP ([…], time 7 day): 1500.2 IU/L | ALT ([…], time 7 day): 49 IU/L | AST ([…], time 7 day): 71.2 IU/L | BUN ([…], time 7 day): 13.6 mg/dL | CRE ([…], time 7 day): 0.2 mg/dL | Ca ([…], time 7 day): 11.7 mg/dL | Cl ([…], time 7 day): 106.2 meq/L | DBIL ([…], time 7 day): 0.026 mg/dL | GLC ([…], time 7 day): 189.6 mg/dL | IP ([…], time 7 day): 8.3 mg/dL | K ([…], time 7 day): 4.2 meq/L | LDH ([…], time 7 day): 65.8 IU/L | Na ([…], time 7 day): 144.2 meq/L | PL ([…], time 7 day): 156.2 mg/dL | RALB ([…], time 7 day): 2.7 g/dL | TBIL ([…], time 7 day): 0.062 mg/dL | TC ([…], time 7 day): 82.6 mg/dL | TG ([…], time 7 day): 72.4 mg/dL | TP ([…], time 7 day): 5.9 g/dL | gamma-GTP ([…], time 7 day): 1.2 IU/L | A/G ([…], time 14 day): 0.8 | ALP ([…], time 14 day): 1535.2 IU/L | ALT ([…], time 14 day): 41.8 IU/L | AST ([…], time 14 day): 67.4 IU/L | BUN ([…], time 14 day): 16 mg/dL | CRE ([…], time 14 day): 0.2 mg/dL | Ca ([…], time 14 day): 11.2 mg/dL | Cl ([…], time 14 day): 105 meq/L | DBIL ([…], time 14 day): 0.022 mg/dL | GLC ([…], time 14 day): 191 mg/dL | IP ([…], time 14 day): 6.5 mg/dL | K ([…], time 14 day): 3.8 meq/L | LDH ([…], time 14 day): 54.8 IU/L | Na ([…], time 14 day): 142.8 meq/L | PL ([…], time 14 day): 157.4 mg/dL | RALB ([…], time 14 day): 2.6 g/dL | TBIL ([…], time 14 day): 0.05 mg/dL | TC ([…], time 14 day): 77.8 mg/dL | TG ([…], time 14 day): 133 mg/dL | TP ([…], time 14 day): 5.8 g/dL | gamma-GTP ([…], time 14 day): 1 IU/L | A/G ([…], time 28 day): 0.8 | ALP ([…], time 28 day): 1164.4 IU/L | ALT ([…], time 28 day): 39.2 IU/L | AST ([…], time 28 day): 61.4 IU/L | BUN ([…], time 28 day): 16.4 mg/dL | CRE ([…], time 28 day): 0.2 mg/dL | Ca ([…], time 28 day): 10.9 mg/dL | Cl ([…], time 28 day): 104.4 meq/L | DBIL ([…], time 28 day): 0.02 mg/dL | GLC ([…], time 28 day): 171.2 mg/dL | IP ([…], time 28 day): 6.1 mg/dL | K ([…], time 28 day): 3.5 meq/L | LDH ([…], time 28 day): 44.6 IU/L | Na ([…], time 28 day): 144.2 meq/L | PL ([…], time 28 day): 152.2 mg/dL | RALB ([…], time 28 day): 2.7 g/dL | TBIL ([…], time 28 day): 0.058 mg/dL | TC ([…], time 28 day): 75.2 mg/dL | TG ([…], time 28 day): 97.6 mg/dL | TP ([…], time 28 day): 6.2 g/dL | gamma-GTP ([…], time 28 day): 1 IU/L
